The results in this text go back to publication PMC6792352, “Limited Chemical Structural Diversity Found to Modulate Thyroid Hormone Receptor in the Tox21 Chemical Library” (Environmental Health Perspectives, 2019).

Each structure is given as a SMILES string. Counter-ions that a name gives are not always drawn. Where only a bound is given, the exact number is not on record here.

The nature of this series: in vitro. The note with it: rat, gh3-tre-luc cells.

Usually CC50 stands for the concentration giving 50% cytotoxicity.

`C=CCOCC(CO)(CO)CO` [Pentaerythritol allyl ether] returned a CC50 at 24 h (AC50 (uM) modified / 1000) of more than 60 µM.

`BrCCCBr` [1,3-Dibromopropane] gave a CC50 at 24 h (AC50 (uM) modified / 1000, Tox21_110001=Tox21_202716, viability, 1 nM T3 present, 24 h) of more than 100 µM.

As to `O=C(O)c1ccc2cc(O)ccc2c1` [6-Hydroxy-2-naphthoic acid], for the setting “AC50 (uM) modified / 1000”, the CC50 at 24 h was more than 90 µM.

Turning to `CC(C)C[C@H](NC(=O)OCC1c2ccccc2-c2ccccc21)C(=O)O` [N-(9-Fluorenylmethoxycarbonyl)-L-leucine], the CC50 at 24 h (AC50 (uM) modified / 1000) is more than 90 µM.

The molecule `CN(C)N` [1,1-Dimethylhydrazine] had a CC50 at 24 h (AC50 (uM) modified / 1000, Tox21_110001=Tox21_302358, viability, 1 nM T3 present, 24 h) of more than 90 µM.

Under “AC50 (uM) modified / 1000, Tox21_110001=Tox21_301190, viability, 1 nM T3 present, 24 h”, `O=S(=O)(c1ccccc1)c1ccccc1` [Diphenylsulfone] registered a CC50 at 24 h of more than 90 µM.

`CC(C)CC#N` [Isovaleronitrile] gave a 50% cytotoxic concentration (CC50) at 24 h (AC50 (uM) modified / 1000) of more than 90 µM.

Take `O=C(O)c1ccc(O)c(O)c1` [3,4-Dihydroxybenzoic acid]: under “AC50 (uM) modified / 1000”, the CC50 at 24 h is more than 90 µM.

In the case of `NCc1ccc(S(N)(=O)=O)cc1` [Mafenide hydrochloride], where the note is “AC50 (uM) modified / 1000”, the cytotoxic concentration (CC50) at 24 h is more than 20 µM.

For `CC(C)=CCC[C@H](C)CCO` [(S)-(-)-beta-Citronellol], under “AC50 (uM) modified / 1000”, the CC50 at 24 h is more than 90 µM.

With `NC(Cc1c[nH]c2ccccc12)C(=O)O` (racemic) [dl-Tryptophan], the CC50 at 24 h (AC50 (uM) modified / 1000) is more than 50 µM.

In turn, `CC(C)(C)c1cc(CCC(=O)NN)cc(C(C)(C)C)c1O` [3-[3,5-DI(tert-butyl)-4-hydroxyphenyl]propanohydrazide] yielded a CC50 at 24 h (AC50 (uM) modified / 1000) of more than 90 µM.

In turn, `CCC(C)S` (stereo not shown) [2-Butanethiol] showed a CC50 at 24 h (AC50 (uM) modified / 1000) of more than 4 µM.

Take `Cc1ccc2ccccc2n1` [Quinaldine]: the CC50 at 24 h (AC50 (uM) modified / 1000) was more than 90 µM.

With `c1c[nH]cn1` [Imidazole], the CC50 at 24 h (AC50 (uM) modified / 1000) is more than 100 µM.

Molecule `O=C(O)[C@H]1/C(=C/CO)O[C@@H]2CC(=O)N21` [Clavulanate lithium] yielded a half-maximal cytotoxic concentration (CC50) at 24 h (AC50 (uM) modified / 1000) of more than 50 µM.

The molecule `O=C(O)CN(CC(=O)O)Cc1cc2c(cc1O)Oc1cc(O)c(CN(CC(=O)O)CC(=O)O)cc1C21OC(=O)c2ccccc21` [Oftasceine] yielded a CC50 at 24 h (AC50 (uM) modified / 1000) of more than 50 µM.

Molecule `COC(=O)c1ccccc1OC` [Methyl 2-methoxybenzoate] registered a CC50 at 24 h (AC50 (uM) modified / 1000) of more than 90 µM.

Regarding `COC(=O)C1=C(C)NC(C)=C(C(=O)O[C@H]2CCN(Cc3ccccc3)C2)[C@H]1c1cccc([N+](=O)[O-])c1` [Barnidipine hydrochloride], under “AC50 (uM) modified / 1000”, the CC50 at 24 h worked out at 16.3 µM.

Where the note is “AC50 (uM) modified / 1000”, `CC(C)CCCCCCc1ccc(OCCOCCO)cc1` [Igepal CO-890] gave a half-maximal cytotoxic concentration (CC50) at 24 h of more than 100 µM.

Turning to `CC(C(=O)O)c1ccc(C(=O)c2cccs2)cc1` (stereo not shown) [Suprofen], the half-maximal cytotoxic concentration (CC50) at 24 h (AC50 (uM) modified / 1000) was more than 20 µM.

For the molecule `C=CCO` [Allyl alcohol], the CC50 at 24 h (AC50 (uM) modified / 1000, Tox21_110001=Tox21_200200, viability, 1 nM T3 present, 24 h) was more than 100 µM and the cytotoxic concentration (CC50) at 24 h (AC50 (uM) modified / 1000, Tox21_110001=Tox21_303507, viability, 1 nM T3 present, 24 h) was more than 90 µM.

For the molecule `COC1=C(OC)C(=O)C(C/C=C(\C)CC/C=C(\C)CC/C=C(\C)CC/C=C(\C)CC/C=C(\C)CC/C=C(\C)CC/C=C(\C)CC/C=C(\C)CC/C=C(\C)CCC=C(C)C)=C(C)C1=O` [Ubidecarenone], the half-maximal cytotoxic concentration (CC50) at 24 h (AC50 (uM) modified / 1000) was more than 50 µM.

In the case of `NC(=O)/N=N/C(N)=O` [Azodicarbonamide], the 50% cytotoxic concentration (CC50) at 24 h (AC50 (uM) modified / 1000) was more than 90 µM.

`CC(=O)OCC(C)C` [Isobutyl acetate] returned a cytotoxic concentration (CC50) at 24 h (AC50 (uM) modified / 1000) of more than 90 µM.

Turning to `CC(Cl)CCl` (stereo not shown) [1,2-Dichloropropane], the CC50 at 24 h (AC50 (uM) modified / 1000, Tox21_110001=Tox21_200362, viability, 1 nM T3 present, 24 h) was more than 90 µM.

On to `Cn1c([N+](=O)[O-])cnc1COC(N)=O` [Ronidazole], for which, for the setting “AC50 (uM) modified / 1000”, the CC50 at 24 h is more than 50 µM.

As to `CC1(C)[C@@H]2CC[C@@]1(C)[C@H](OC(=O)CSC#N)C2` [Thanite], the CC50 at 24 h (AC50 (uM) modified / 1000) was more than 50 µM.

Under “AC50 (uM) modified / 1000, Tox21_110001=Tox21_201178, viability, 1 nM T3 present, 24 h”, `CC(Cl)(Cl)[N+](=O)[O-]` [1,1-Dichloro-1-nitroethane] registered a CC50 at 24 h of more than 90 µM.

Turning to `CC/C=C/CCCCCCCCCCOC(C)=O` [(E)-11-Tetradecen-1-ol acetate], the CC50 at 24 h (AC50 (uM) modified / 1000) is more than 90 µM.

For `CCCCC(CC)COC(=O)COc1cc(Cl)c(Cl)cc1Cl` (stereo not shown) [2,4,5-T 2-Ethylhexyl], for the setting “AC50 (uM) modified / 1000”, the CC50 at 24 h is more than 90 µM.

For the setting “AC50 (uM) modified / 1000”, `CC(=O)C(C)C` [3-Methyl-2-butanone] yielded a CC50 at 24 h of more than 100 µM.

Take `CCCCCCCCCCCCCN1CC(C)OC(C)C1` (stereo not shown) [Tridemorph]: under “AC50 (uM) modified / 1000”, the CC50 at 24 h is more than 90 µM.

With `C[C@]12CCC(=O)C=C1C=C[C@@H]1[C@@H]2CC[C@@]2(C)[C@H]1CC[C@@]2(O)CCC(=O)O` [Canrenoate potassium], the CC50 at 24 h (AC50 (uM) modified / 1000) was more than 20 µM.

`O=C1c2ccccc2C(=O)c2ccccc21` [Anthraquinone] had a CC50 at 24 h (AC50 (uM) modified / 1000) of more than 50 µM.

The molecule `O=[N+]([O-])c1ccc(/C=N\O)o1` [Nifuroxime] had a CC50 at 24 h (AC50 (uM) modified / 1000) of more than 50 µM.

On to `Cc1ccc(N)cc1O` [5-Amino-2-methylphenol], for which the half-maximal cytotoxic concentration (CC50) at 24 h (AC50 (uM) modified / 1000) was more than 90 µM.

Molecule `C=CCNCC=C` [Diallylamine] yielded a CC50 at 24 h (AC50 (uM) modified / 1000) of more than 90 µM.

`C#CCC(Cc1cnc2nc(N)nc(N)c2n1)c1ccc(C(=O)N[C@@H](CCC(=O)O)C(=O)O)cc1` (stereo partly shown) [Pralatrexate]: the CC50 at 24 h (AC50 (uM) modified / 1000) is more than 50 µM.

In turn, `O=C(O)COc1nn(Cc2ccccc2)c2ccccc12` [Bendazac sodium] gave a CC50 at 24 h (AC50 (uM) modified / 1000) of more than 50 µM.

In the case of `Cc1cc(N)c2cc(NC(=O)Nc3ccc4nc(C)cc(N)c4c3)ccc2n1` [Aminoquinuride dihydrochloride], it took 35 µM to reach half-maximal cytotoxicity (AC50 (uM) modified / 1000) (CC50 at 24 h).

Where the note is “AC50 (uM) modified / 1000”, `CCCSP(=O)(OCC)SCCC` [Ethoprop] gave a CC50 at 24 h of more than 90 µM.

In turn, `Nc1ccc(O)c(C(=O)O)c1` [5-Aminosalicylic acid] yielded a CC50 at 24 h (AC50 (uM) modified / 1000) of more than 50 µM.

For the setting “AC50 (uM) modified / 1000”, `CCCCCCCCCCCC` [Dodecane] showed a CC50 at 24 h of more than 90 µM.

Under “AC50 (uM) modified / 1000”, `CCN(CC)CCCN(c1ccccc1)C1Cc2ccccc2C1` [Aprindine hydrochloride] showed a CC50 at 24 h of 2.3 µM.

Take `CCO[Si](CCCSSSSCCC[Si](OCC)(OCC)OCC)(OCC)OCC` [4,4,15,15-Tetraethoxy-3,16-dioxa-8,9,10,11-tetrathia-4,15-disilaoctadecane]: the CC50 at 24 h (AC50 (uM) modified / 1000) amounted to 70.3 µM.

Regarding `CCCCCCCCCC` [Decane], the CC50 at 24 h (AC50 (uM) modified / 1000) was more than 90 µM.

For `COc1ncnc(NS(=O)(=O)c2ccc(N)cc2)c1OC` [Sulfadoxine], under “AC50 (uM) modified / 1000”, the CC50 at 24 h is more than 50 µM.

For the molecule `O=C1C(Cl)=C(Cl)C(=O)C(Cl)=C1Cl` [Chloranil], the CC50 at 24 h by setting is: (AC50 (uM) modified / 1000, Tox21_110001=Tox21_201656, viability, 1 nM T3 present, 24 h) 12.7 µM; (AC50 (uM) modified / 1000, Tox21_110001=Tox21_303021, viability, 1 nM T3 present, 24 h) 20.3 µM.

Under “AC50 (uM) modified / 1000”, `CCCOC(=O)c1ccccc1` [Propyl benzoate] yielded a CC50 at 24 h of more than 90 µM.

For the molecule `CCN(Cc1ccc(Cl)nc1)/C(=C/[N+](=O)[O-])NC` [(E)-Nitenpyram], the cytotoxic concentration (CC50) at 24 h (AC50 (uM) modified / 1000) is more than 50 µM.

`CN1CCN(CCCN2c3ccccc3Sc3ccc(S(=O)(=O)N(C)C)cc32)CC1` [Thioproperazine dimethanesulfonate]: the CC50 at 24 h (AC50 (uM) modified / 1000) came out at 14.2 µM.

`Clc1ccc(C(Cl)(Cl)Cl)cc1Cl` [1,2-Dichloro-4-(trichloromethyl)benzene]: under “AC50 (uM) modified / 1000”, the half-maximal cytotoxic concentration (CC50) at 24 h is more than 90 µM.

`CC(=O)Nc1ccccc1` [Acetanilide] came in with a CC50 at 24 h (AC50 (uM) modified / 1000) of more than 90 µM.

For the setting “AC50 (uM) modified / 1000”, `CC(C)(N)C#N` [2-Amino-2-methylpropionitrile] came in with a CC50 at 24 h of more than 90 µM.

In turn, `CCCCCCCC/C=C\CCCCCCCC(=O)OCC(O)CO` (stereo not shown) [Glyceryl monooleate] displayed a half-maximal cytotoxic concentration (CC50) at 24 h (AC50 (uM) modified / 1000) of more than 90 µM.

For the molecule `NNc1nc(-c2ccccc2)cs1` [2-Hydrazino-4-phenylthiazole], the CC50 at 24 h (AC50 (uM) modified / 1000) turned out to be 47 µM.

For the setting “AC50 (uM) modified / 1000”, `CN(C)CCc1ccc(O)cc1` [Hordenine] had a CC50 at 24 h of more than 50 µM.

In turn, `CC1=C(C)S(=O)(=O)CCS1(=O)=O` [Dimethipin] had a half-maximal cytotoxic concentration (CC50) at 24 h (AC50 (uM) modified / 1000) of more than 90 µM.

The molecule `O=c1[nH]c(=O)c2[nH]c(=O)[nH]c2[nH]1` [Sodium urate] displayed a CC50 at 24 h (AC50 (uM) modified / 1000) of more than 50 µM.

For the molecule `CN(Cc1ccc(C(C)(C)C)cc1)Cc1cccc2ccccc12` [Butenafine], the cytotoxic concentration (CC50) at 24 h (AC50 (uM) modified / 1000) came to 27.3 µM.

`COc1ccc([C@]2(C#N)CC[C@@H](C(=O)O)CC2)cc1OC1CCCC1` [Cilomilast]: the cytotoxic concentration (CC50) at 24 h (AC50 (uM) modified / 1000) is more than 50 µM.
